Values of other authors as cited in US5891887A, “Use of [R-(Z)]-α-(methoxyimino)-α-(1-azabicyclo [2.2.2.]oct-3-yl)acetonitrile to reduce amyloid βA4 formation in alzheimer's disease” (priority 1994, dated 1999).

System: m1 and/or m3 receptor subtypes
Details: by activation of m1 and/or m3 receptor subtypes; literature

Production of non-amyloidogenic APP fragments	Structure (SMILES)
enhance	CCCCCCOc1nsnc1C1=CCCN(C)C1 [xanomeline]
enhance	CC(C[N+](C)(C)C)OC(N)=O (stereo not drawn) [bethanechol]

Structure (SMILES)	Production of non-amyloidogenic APP fragments
CC1OC2(CS1)CN1CCC2CC1 (stereo not drawn) [AF-102B]	enhance
